US20230265151A1, “GIP/GLP1 CO-AGONIST COMPOUNDS” (priority 2020, published 2023)
Where two headings read alike, the source gives them in different places.

How the values were obtained:
Format in all cases: cell-based
hGCGR = target: T1, hGCGR (Homo sapiens, UniProt P47871); assay: Functional cAMP formation (HTRF) in HEK-293 clonal cells expressing hGCGR, 0.1% bovine casein, without or with 1.0% human serum albumin; details: cAMP, 37° C.
T1 construct: expressed in transfected cells
In short: (§1)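 Cells were stimulated with peptide for 30 min at 37° C, then lysed in buffer carrying cAMP-d2 and anti-cAMP Eu3+-cryptate for a competitive HTRF read after at least 60 min at room temperature. The 665/620 nm ratio was converted to nM cAMP against a standard curve.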

hGLP-1R = hGLP-1R (Homo sapiens, UniProt P43220); assay: Functional cAMP formation (HTRF) in HEK-293 clonal cells expressing hGLP-1R, 0.1% bovine casein, without or with 1.0% human serum albumin; design: expressed in transfected cells; details: for Emax: percent of maximal response to GLP-1(7-36)NH2; for EC50: cAMP
In short: as §1

hGIPR = target: T2, hGIPR (Homo sapiens, UniProt P48546); assay: Functional cAMP formation (HTRF) in HEK-293 clonal cells expressing hGIPR, 0.1% bovine casein, without or with 1.0% human serum albumin; details: for Emax: percent of maximal response to GIP(1-42)NH2; for EC50: cAMP
T2 construct: expressed in transfected cells
T2 sequence (P48546 22-466): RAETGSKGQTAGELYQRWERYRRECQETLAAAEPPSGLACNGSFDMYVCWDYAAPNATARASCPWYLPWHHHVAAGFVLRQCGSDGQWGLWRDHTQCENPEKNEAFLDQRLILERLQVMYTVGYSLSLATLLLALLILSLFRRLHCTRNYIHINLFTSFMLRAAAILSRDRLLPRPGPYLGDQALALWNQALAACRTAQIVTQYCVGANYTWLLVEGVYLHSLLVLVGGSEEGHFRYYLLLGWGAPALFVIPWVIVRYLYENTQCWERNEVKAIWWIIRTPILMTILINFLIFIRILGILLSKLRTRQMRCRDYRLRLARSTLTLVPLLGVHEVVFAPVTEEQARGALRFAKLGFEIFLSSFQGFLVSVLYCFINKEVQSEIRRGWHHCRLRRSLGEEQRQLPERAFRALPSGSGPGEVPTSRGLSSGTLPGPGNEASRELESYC
In short: as §1

[1] = 0.1% bovine casein (no human serum albumin), geometric mean, read-out: hGCGR EC50, nM (SEM, n)
[2] = 0.1% bovine casein and 1.0% human serum albumin, geometric mean (SEM, n), read-out: hGCGR EC50, nM (SEM, n)
[3] = HEK293, cAMP, 37° C., 0.1% bovine casein, arithmetic mean, read-out: hGLP-1R Emax, % ± SEM
[4] = 37° C., 0.1% bovine casein (no human serum albumin), geometric mean, read-out: hGLP-1R EC50, nM (SEM, n)
[5] = HEK293, cAMP, 37° C., 0.1% bovine casein and 1.0% human serum albumin, read-out: hGIPR Emax, % ± SEM
[6] = 37° C., 0.1% bovine casein (no human serum albumin), geometric mean, read-out: hGIPR EC50, nM (SEM, n)
[7] = HEK293, cAMP, 37° C., 0.1% bovine casein and 1.0% human serum albumin, read-out: hGLP-1R Emax, % ± SEM

T1 sequence (P47871 26-477): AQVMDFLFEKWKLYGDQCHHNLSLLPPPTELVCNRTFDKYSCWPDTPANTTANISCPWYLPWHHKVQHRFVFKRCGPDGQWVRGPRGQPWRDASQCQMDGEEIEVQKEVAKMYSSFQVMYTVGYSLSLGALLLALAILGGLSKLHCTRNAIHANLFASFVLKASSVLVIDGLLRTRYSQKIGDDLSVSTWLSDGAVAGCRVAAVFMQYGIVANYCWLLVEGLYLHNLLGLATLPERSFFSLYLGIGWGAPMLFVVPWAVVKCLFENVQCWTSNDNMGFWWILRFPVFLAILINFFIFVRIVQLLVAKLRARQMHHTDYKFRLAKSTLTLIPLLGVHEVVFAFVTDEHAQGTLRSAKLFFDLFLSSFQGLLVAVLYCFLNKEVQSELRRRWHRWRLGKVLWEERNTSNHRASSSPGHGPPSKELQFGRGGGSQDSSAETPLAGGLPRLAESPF
Sequence of hGLP-1R (P43220 24-463): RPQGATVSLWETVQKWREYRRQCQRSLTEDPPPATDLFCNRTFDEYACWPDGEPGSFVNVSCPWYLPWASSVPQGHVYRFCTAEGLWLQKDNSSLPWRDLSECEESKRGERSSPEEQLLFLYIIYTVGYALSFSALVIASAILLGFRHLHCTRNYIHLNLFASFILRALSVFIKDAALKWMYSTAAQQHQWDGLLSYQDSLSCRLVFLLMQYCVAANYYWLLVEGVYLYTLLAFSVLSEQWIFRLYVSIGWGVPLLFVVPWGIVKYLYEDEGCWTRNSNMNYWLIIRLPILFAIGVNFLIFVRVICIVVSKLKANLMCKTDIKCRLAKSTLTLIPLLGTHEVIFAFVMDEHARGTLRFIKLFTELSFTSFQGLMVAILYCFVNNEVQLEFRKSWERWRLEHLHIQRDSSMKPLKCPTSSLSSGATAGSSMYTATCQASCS

Row | Compound | EC50 (hGCGR; hGCGR EC50, nM (SEM, n), 0.1% bovine casein (no human serum albumin), geometric mean) [nM] | EC50 (hGCGR; hGCGR EC50, nM (SEM, n), 0.1% bovine casein and 1.0% human serum albumin, geometric mean (SEM, n)) [nM] | Emax (hGLP-1R; HEK293, read-out: hGLP-1R Emax, % ± SEM, cAMP, 37° C., 0.1% bovine casein and 1.0% human serum albumin) [%] | EC50 (hGLP-1R; hGLP-1R EC50, nM (SEM, n), 37° C., 0.1% bovine casein (no human serum albumin), geometric mean) [nM] | EC50 (hGLP-1R; hGLP-1R EC50, nM (SEM, n), 37° C., 0.1% bovine casein and 1.0% human serum albumin, geometric mean (SEM, n)) [nM] | Emax (hGIPR; HEK293, read-out: hGIPR Emax, % ± SEM, cAMP, 37° C., 0.1% bovine casein and 1.0% human serum albumin) [%] | Emax (hGIPR; HEK293, read-out: hGIPR Emax, % ± SEM, cAMP, 37° C., 0.1% bovine casein, arithmetic mean) [%] | EC50 (hGIPR; hGIPR EC50, nM (SEM, n), 37° C., 0.1% bovine casein (no human serum albumin), geometric mean) [nM] | EC50 (hGIPR; hGIPR EC50, nM (SEM, n), 37° C., 0.1% bovine casein and 1.0% human serum albumin, geometric mean (SEM, n)) [nM] | EC50 (hGCGR; [1]) [nM] | EC50 (hGCGR; [2]) [nM] | Emax (hGLP-1R; [3]) [%] | EC50 (hGLP-1R; [4]) [nM] | Emax (hGIPR; [5]) [%] | EC50 (hGIPR; [6]) [nM] | Emax (hGLP-1R; [7]) [%] | Emax (hGIPR; HEK293, cAMP, 37° C., 0.1% bovine casein, arithmetic mean, read-out: hGIPR Emax, % ± SEM) [%]
1 | CC[C@H](C)[C@H](NC(=O)[C@H](CC(C)C)NC(=O)[C@](C)(Cc1ccc(O)cc1)NC(=O)[C@H](CCCCNC(=O)COCCOCCNC(=O)COCCOCCNC(=O)CC[C@H](NC(=O)CCCCCCCCCOc1ccc(C(=O)O)cc1)C(=O)O)NC(=O)[C@@H](NC(=O)[C@H](Cc1ccccc1)NC(=O)[C@H](CCC(=O)O)NC(=O)C(C)(C)NC(=O)[C@H](CCC(N)=O)NC(=O)[C@H](C)NC(=O)[C@H](CCC(N)=O)NC(=O)[C@H](CCCN)NC(=O)[C@H](CC(=O)O)NC(=O)[C@H](CC(C)C)NC(=O)[C@](C)(CC(C)C)NC(=O)[C@@H](NC(=O)C(C)(C)NC(=O)[C@H](Cc1ccc(O)cc1)NC(=O)[C@H](CC(=O)O)NC(=O)[C@H](CO)NC(=O)[C@@H](NC(=O)[C@](C)(Cc1ccccc1F)NC(=O)[C@@H](NC(=O)CNC(=O)[C@H](CCC(=O)O)NC(=O)C(C)(C)NC(=O)[C@@H](N)Cc1ccc(O)cc1)[C@@H](C)O)[C@@H](C)O)[C@@H](C)CC)[C@@H](C)CC)C(=O)N[C@@H](CCCCNC(=O)COCCOCCNC(=O)COCCOCCNC(=O)CC[C@H](NC(=O)CCCCCCCCCOc1ccc(C(=O)O)cc1)C(=O)O)C(=O)NCC(=O)NCC(=O)N1CCC[C@H]1C(=O)N[C@@H](CO)C(=O)N[C@@H](CO)C(=O)NCC(=O)N[C@@H](C)C(=O)N1CCC[C@H]1C(=O)N1CCC[C@H]1C(=O)N1CCC[C@H]1C(=O)N[C@@H](CO)C(N)=O [Example 402] | > 9950 | > 9950 | 110 | 0.221 | 13.5 | 84.5 | 98.9 | 0.0132 | 1.11 | – | – | – | – | – | – | – | –
2 | CC[C@H](C)[C@H](NC(=O)[C@H](CC(C)C)NC(=O)[C@](C)(Cc1ccc(O)cc1)NC(=O)[C@@H](CCC(=O)O)NC(=O)[C@@H](NC(=O)[C@H](Cc1ccccc1)NC(=O)[C@H](CCCCNC(=O)CCOCCOCCOCCNC(=O)CC[C@H](NC(=O)CCCCCCCCCCCCC(=O)O)C(=O)O)NC(=O)C(C)(C)NC(=O)[C@H](CCC(N)=O)NC(=O)[C@H](C)NC(=O)[C@H](CCCCNC(=O)CCOCCOCCOCCNC(=O)CC[C@H](NC(=O)CCCCCCCCCCCCC(=O)O)C(=O)O)NC(=O)[C@H](CCCN)NC(=O)[C@H](CC(=O)O)NC(=O)[C@H](CC(C)C)NC(=O)[C@](C)(CC(C)C)NC(=O)[C@@H](NC(=O)C(C)(C)NC(=O)[C@H](Cc1ccncc1)NC(=O)[C@H](CC(=O)O)NC(=O)[C@H](CO)NC(=O)[C@@H](NC(=O)[C@](C)(Cc1ccccc1F)NC(=O)[C@@H](NC(=O)CNC(=O)[C@H](CCC(=O)O)NC(=O)C(C)(C)NC(=O)[C@@H](N)Cc1ccc(O)cc1)[C@@H](C)O)[C@@H](C)O)[C@@H](C)CC)[C@@H](C)CC)C(=O)N[C@@H](CCC(=O)O)C(=O)NCC(=O)NCC(=O)N1CCC[C@H]1C(=O)N[C@@H](CO)C(=O)N[C@@H](CO)C(=O)NCC(=O)N[C@@H](C)C(=O)N1CCC[C@H]1C(=O)N1CCC[C@H]1C(=O)N1CCC[C@H]1C(=O)N[C@@H](CO)C(N)=O [Example 404] | – | – | – | – | – | – | – | – | – | > 9950 | > 9950 | 94.3 | 0.632 | 77.3 | 0.014 | – | –
3 | CC[C@H](C)[C@H](NC(=O)[C@H](CC(C)C)NC(=O)[C@](C)(Cc1ccc(O)cc1)NC(=O)[C@@H](CCC(=O)O)NC(=O)[C@@H](NC(=O)[C@H](Cc1ccccc1)NC(=O)[C@H](CCCCNC(=O)CCOCCOCCOCCOCCNC(=O)CC[C@H](NC(=O)CCCCCCCCCCCCC(=O)O)C(=O)O)NC(=O)C(C)(C)NC(=O)[C@H](CCC(N)=O)NC(=O)[C@H](C)NC(=O)[C@H](CCCCNC(=O)CCOCCOCCOCCOCCNC(=O)CC[C@H](NC(=O)CCCCCCCCCCCCC(=O)O)C(=O)O)NC(=O)[C@H](CCCN)NC(=O)[C@H](CC(=O)O)NC(=O)[C@H](CC(C)C)NC(=O)[C@](C)(CC(C)C)NC(=O)[C@@H](NC(=O)C(C)(C)NC(=O)[C@H](Cc1ccncc1)NC(=O)[C@H](CC(=O)O)NC(=O)[C@H](CO)NC(=O)[C@@H](NC(=O)[C@](C)(Cc1ccccc1F)NC(=O)[C@@H](NC(=O)CNC(=O)[C@H](CCC(=O)O)NC(=O)C(C)(C)NC(=O)[C@@H](N)Cc1ccc(O)cc1)[C@@H](C)O)[C@@H](C)O)[C@@H](C)CC)[C@@H](C)CC)C(=O)N[C@@H](CCC(=O)O)C(=O)NCC(=O)NCC(=O)N1CCC[C@H]1C(=O)N[C@@H](CO)C(=O)N[C@@H](CO)C(=O)NCC(=O)N[C@@H](C)C(=O)N1CCC[C@H]1C(=O)N1CCC[C@H]1C(=O)N1CCC[C@H]1C(=O)N[C@@H](CO)C(N)=O [Example 405] | – | – | – | – | – | – | – | – | – | > 9950 | > 9950 | 93.3 | 1.26 | 74.3 | 0.0209 | 78.1 | 100
4 | CC[C@H](C)[C@H](NC(=O)[C@H](CC(C)C)NC(=O)[C@](C)(Cc1ccc(O)cc1)NC(=O)[C@@H](CCC(=O)O)NC(=O)[C@@H](NC(=O)[C@H](Cc1ccccc1)NC(=O)[C@H](CCCCNC(=O)COCCOCCNC(=O)COCCOCCNC(=O)CC[C@H](NC(=O)CCCCCCCCCCCCC(=O)O)C(=O)O)NC(=O)C(C)(C)NC(=O)[C@H](CCC(N)=O)NC(=O)[C@H](C)NC(=O)[C@H](CCCCNC(=O)COCCOCCNC(=O)COCCOCCNC(=O)CC[C@H](NC(=O)CCCCCCCCCCCCC(=O)O)C(=O)O)NC(=O)[C@H](CCCN)NC(=O)[C@H](CC(=O)O)NC(=O)[C@H](CC(C)C)NC(=O)[C@](C)(CC(C)C)NC(=O)[C@@H](NC(=O)C(C)(C)NC(=O)[C@H](Cc1ccncc1)NC(=O)[C@H](CC(=O)O)NC(=O)[C@H](CO)NC(=O)[C@@H](NC(=O)[C@](C)(Cc1ccccc1F)NC(=O)[C@@H](NC(=O)CNC(=O)[C@H](CCC(=O)O)NC(=O)C(C)(C)NC(=O)[C@@H](N)Cc1ccc(O)cc1)[C@@H](C)O)[C@@H](C)O)[C@@H](C)CC)[C@@H](C)CC)C(=O)N[C@@H](CCCN)C(=O)NCC(=O)NCC(=O)N1CCC[C@H]1C(=O)N[C@@H](CO)C(=O)N[C@@H](CO)C(=O)NCC(=O)N[C@@H](C)C(=O)N1CCC[C@H]1C(=O)N1CCC[C@H]1C(=O)N1CCC[C@H]1C(=O)N[C@@H](CO)C(N)=O [Example 406] | – | – | – | – | – | – | – | – | – | > 9950 | > 9950 | 98.5 | 0.351 | 87.3 | 0.00896 | 96 | –
